“Also recorded” adds a separate entry of the source.
What was measured:
mice = test: Context-dependent fear conditioning memory test; format: in vivo, mouse
Procedure: Fear conditioning tests Context-dependent fear conditioning. Training consists of a 3 min exposure of mice to the conditioning box (context) followed by a foot shock (2 sec, 0.5/0.8/1.0 mA, constant current). The memory test was performed 24 hr later by re-exposing the mice for 3 min into the conditioning context. Freezing, defined as a lack of movement except for heart beat and respiration associated with a crouching posture, was recorded every 10 sec by two trained observers (one was unaware of the experimental conditions) during 3 min (a total of 18 sampling intervals). The number of observations indicating freezing obtained as a mean from both observers was expressed as a percentage of the total number of observations.
Chemical administration Suberoylanilide hydroxamic acid (SAHA) was synthesized as described previously in WO 93/07148 PTC/US92/08454. Sodium butyrate was purchased from Sigma (cat.B5887). SAHA and WT-161 were dissolved in DMSO as stock solutions and diluted in saline just before injection. Sodium butyrate was prepared in saline. Mice received intraperitoneal injection daily with either SAHA or saline for 10 days or 21 days.
C57/BL6 WT mice were injected with vehicle or BRD-6929 for 10 days. On day 11, mice were trained in contextual fear conditioning paradigm (Training consisted of a 3 min exposure of mice to the conditioning box (context, TSE) followed by a foot shock (2 sec, 0.8 mA, constant current). One hour after training, mice were injected with BRD-6929 or vehicle. On day 12, mice were returned to the training box and the freezing behavior were monitored and recorded.

c-fos = c-fos positive cells after fear conditioning training; format: in vivo, mouse; settings: compared to saline treated group
From the text: Studies described in the Examples below were also undertaken to determine which of the 11 histone deacetylases is responsible for the observed function and to identify selective HDAC inhibitors for enhancing memory. […] Remarkably, HDAC2 neuron specific knockout mice (loss of function) display enhanced learning. […] Thus it was unexpected that HDAC1/HDAC2 inhibitors would be useful for enhancing memory.

hippocampus = test: Long-term potentiation (LTP) in hippocampal slices of treated mice; format: in vivo, mouse; settings: 25 mg/kg i.p. 10 days, one HFS 1×100 Hz
Procedure: FIG. 6 SAHA treatment facilitates LTP in WT but not HDAC2KO hippocampus. a-b. One-month-old HDAC2KO mice and their WT littermates were injected with SAHA (25 mg/kg, i.p.) or saline for 10 days. An additional injection was introduced 30 minutes before sacrifice. Long-term potentiation (LTP) was induced by one HFS stimulation (1×100 Hz, 1 s) of Schaffer collaterals. a. […] (**, p<0.005, two-way ANOVA).
Electrophysiological analysis. 3-6 months old HDAC2OE, HDAC2KO or their littermates were killed by cervical dislocation, and hippocampi were rapidly dissected in iced oxygenated artificial CSF (ACSF). Transverse hippocampal slices, 400 μm thick were placed in a chamber and continuously perfused with oxygenated ACSF. A bipolar stimulating electrodes (0.002-inch-diameter nichrome wire; A-M Systems) placed in the stratum radiatum was used to elicit action potentials in CA3 axons. An ACSF-filled glass microelectrode with a resistance between 0.5 and 3 MΩ was placed in the stratum radiatum region of CA1 and was used to record the field excitatory post-synaptic potentials (fEPSP). Data were acquired using HEKA EPC10 and analyzed by patchmaster (HEKA). […] Baseline responses were recorded for 20 min. fEPSP were evoked at the CA1 synapses by stimulating Schaffer collaterals at a low frequency (2 per min) to establish a stable baseline. […]

[1] = test system: CA1 region of hippocampus; test: Golgi staining and synaptophysin immunostaining of hippocampal CA1; format: in vivo, mouse
Procedure: Memory test for mice with contextual fear conditioning training (foot shock 1.0 mA). HDAC2OE mice (SAHA group, n=12; saline group, n=12) and WT littermates (SAHA group, n=12; saline group, n=15) were treated with saline or SAHA (25 mg/kg, i.p.) for 10 days before memory test. b. CA1 region (pyramidal neuron layer; stratum radiatum (s.r.)) from WT and HDAC2OE mice received chronic SAHA treatment or saline treatment and were observed through immunostaining. Average optical signals for Ac-lysine were measured on pyramidal neuron layer; SVP signals were measured from s.r. c. Images of Golgi staining from CA1 region of hippocampus. For WT, naive, n=23; WT, SAHA, n=41; HDAC2OE, naïve, n=21; HDAC2OE, SAHA, n=32. Scale bar 10 μm. d. Memory test for mice with contextual fear conditioning training (foot shock 0.5 mA) after 10 day SAHA injection (25 mg/kg, i.p.). WT mice (SAHA, n=10; saline, n=10) and HDAC2 KO mice (SAHA, n=8; saline, n=8). e. CA1 region from HDAC2KO mice received chronic SAHA treatment or saline treatment and were observed through immunostaining. SVP-singles were quantified in the s.r. Saline, n=15; SAHA, n=22. Scale bar=50 μm. f. Images of Golgi staining of CA1 region of hippocampus from HDAC2KO mice. HDAC2KO, SAHA, n=24; HDAC2KO, naïve, n=27. *, p<0.05; **, p<0.005; ***,p<0.001, unpaired student t-test error bars indicate s.e.m.
Golgi impregnation Golgi-Cox-stained brains were cut to 200 μm thick cross-sections with vibratome and analyzed using a Zeiss 200 Axiovert microscope and Openlab software. The number of apical and basal spines on hippocampal CA1 pyramidal neurons was counted blind to the genotype. For each experimental group, a minimum of 10 cells per slice (animal number n=3) were analyzed. CA1 hippocampal neurons within the region −1.4 mm to −1.6 mm (relative to the bregma position) were included for the analysis.
Immunohistochemistry Immunohistochemical analysis was performed as described before (Guan, J. S., et al., Cell, 2005. 122(4): p. 619-31.). Antibodies were used in a 1:1000 concentration. […] Staining was quantified using LSMetal0 software (Zeiss).

tetra-acetylated H2B = test: Western blot of tetra-acetylated H2B in primary striatal cells; format: cell-based, mouse; settings: relative to DMSO controls
Procedure: (§1) Four compounds were tested including CI-994 (BRD-3696) and SAHA. […] BRD-6929 and BRD-5298 treatment results in a 2-5 fold increase in both marks at 1 and 10 uM.

tetra-acetylated H4 = test: Western blot of tetra-acetylated H4 in primary striatal cells; format: cell-based, mouse; settings: relative to DMSO controls
Procedure: as §1

[2] = test system: primary neuronal cultures; test: Immunofluorescence: overall cell number in primary neuronal cultures; format: cell-based, mouse; settings: 1 and 10 uM; 6 h; primary neuronal cell cultures
Procedure: (§2) 1) Compounds were pin transferred from 384-well plates (Abgene) using a 185 nl pin tool using a no touch bottom protocol.
(§3) 1) Media was aspirated using a plate washer (Tecan) protocol that leaves ˜5 ul residual volume and without touching the bottom of plates); or alternatively, wells were gently aspirated to remove media with 12-channel aspirator wand.
(§4) 2) A multichannel pipet or use liquid handling system (e.g. Combi, standard tubing; slow speed) was used to add 75 ul formaldehyde (4% in PBS) and wells incubated 10 min at room temperature.
(§5) 3) Formaldehyde was aspirated and cells rinsed 3 times with 100 ul PBS;
(§6) 4) PBS was aspirated and 100 ul blocking/permeablization buffer (0.1% Triton-X100, 2% BSA, in PBS) added and wells incubate 1 hour at room temperature.
(§7) 5) Blocking buffer was aspirated and 50 ul primary antibody diluted 1:500 in blocking buffer was added and wells incubated overnight at 4 degrees.
(§8) 1) Primary antibody was aspirated and wells rinsed 3 times with 100 ul blocking buffer
(§9) 2) 50 ul of secondary antibody diluted 1:500 and with Hoeschst (1:1000 from 10 mg/mL (16 mM) stock) added and wells incubated 1.5 hours at room temperature covered in foil to prevent photobleaching.
(§10) 3) Wells were rinsed 3 times with 100 ul PBS, and a 100 uls of PBS added and the plates, sealed
(§11) 4) Plates were then read on Acumen/IX Micro

H2B acetylation = test: Immunofluorescence: H2B acetylation in primary neuronal cell cultures; format: cell-based, mouse; settings: 1 and 10 uM; 6 h; primary neuronal cell cultures
Procedure: as §2, §3, §4, §5, §6, §7, §8, §9, §10, §11

HDAC6 = biological target: T1, HDAC6 (Homo sapiens, UniProt Q9UBN7); settings: cited from earlier work
T1 sequence (Q9UBN7 1-1215): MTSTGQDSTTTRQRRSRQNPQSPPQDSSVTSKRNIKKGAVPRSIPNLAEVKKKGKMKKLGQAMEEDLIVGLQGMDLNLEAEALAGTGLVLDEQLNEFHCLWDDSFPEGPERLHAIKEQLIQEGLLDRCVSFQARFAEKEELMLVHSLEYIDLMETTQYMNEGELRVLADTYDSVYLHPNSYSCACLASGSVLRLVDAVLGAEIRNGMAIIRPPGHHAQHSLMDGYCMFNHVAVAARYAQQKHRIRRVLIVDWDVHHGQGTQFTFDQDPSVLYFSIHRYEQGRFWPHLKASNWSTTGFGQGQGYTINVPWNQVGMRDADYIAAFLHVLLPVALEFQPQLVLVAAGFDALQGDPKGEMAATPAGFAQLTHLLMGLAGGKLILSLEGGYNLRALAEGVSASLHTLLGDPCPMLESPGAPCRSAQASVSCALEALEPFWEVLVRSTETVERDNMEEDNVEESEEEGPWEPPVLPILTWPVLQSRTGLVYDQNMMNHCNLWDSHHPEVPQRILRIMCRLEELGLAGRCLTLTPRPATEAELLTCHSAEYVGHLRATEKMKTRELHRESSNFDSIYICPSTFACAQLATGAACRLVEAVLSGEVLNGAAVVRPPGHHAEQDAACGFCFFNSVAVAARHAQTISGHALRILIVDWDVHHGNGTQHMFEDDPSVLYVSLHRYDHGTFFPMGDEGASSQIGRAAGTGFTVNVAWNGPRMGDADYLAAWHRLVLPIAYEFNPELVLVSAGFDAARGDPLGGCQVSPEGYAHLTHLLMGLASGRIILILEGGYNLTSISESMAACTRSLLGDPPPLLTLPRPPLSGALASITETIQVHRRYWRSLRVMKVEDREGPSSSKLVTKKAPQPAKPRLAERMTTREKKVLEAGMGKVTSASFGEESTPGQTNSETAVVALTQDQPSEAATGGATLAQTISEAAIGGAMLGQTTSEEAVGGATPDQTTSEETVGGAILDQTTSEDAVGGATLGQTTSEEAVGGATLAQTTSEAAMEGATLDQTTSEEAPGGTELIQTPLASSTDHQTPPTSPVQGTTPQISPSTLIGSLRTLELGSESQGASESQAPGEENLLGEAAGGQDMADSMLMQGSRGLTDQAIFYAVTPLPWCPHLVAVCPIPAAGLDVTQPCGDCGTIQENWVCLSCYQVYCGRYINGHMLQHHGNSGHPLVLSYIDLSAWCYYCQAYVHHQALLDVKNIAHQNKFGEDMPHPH

[3] = HDAC2KO mice, chronic treatment

Compound: Nc1ccccc1NC(=O)c1ccc(CNC(=O)OCc2cccnc2)cc1 [MS-275]
- associative learning in mice (mice; mouse, in vivo): did not facilitate
- number of c-fos positive cells after fear conditioning training (c-fos): lower number

Compound: O=C(CCCCCCC(=O)Nc1ccccc1)NO [SAHA, suberoylanilide hydroxamic acid]
- freezing behavior (mice; HDAC2KO mice, 25 mg/kg i.p. 10 days, foot shock 0.5 mA, n=8): 52.1±9.8%
- freezing behavior (mice; HDAC2OE mice, 25 mg/kg i.p. daily 10 days, foot shock 1.0 mA, n=12): 66.7±5.1%
- freezing behavior (mice; WT control mice, 25 mg/kg i.p. 10 days, foot shock 0.5 mA, n=10): 45.0±6.9%
- freezing behavior (mice; WT control mice, 25 mg/kg i.p. daily 10 days, foot shock 1.0 mA, n=12): 63.9±4.2%
- LTP (hippocampus; HDAC2 KO hippocampus): did not have a detectable effect; also recorded: No significant difference
- LTP (hippocampus; WT hippocampus): modestly increased; also recorded: significant increase
- dendritic spine density of CA1 neurons [1, 3]: not significantly affected
- synaptophysin staining in the stratum radiatum [1, 3]: not significantly affected
- decreased dendritic spine and synapses phenotype ([1]; HDAC2OE mice, chronic treatment 25 mg/kg i.p.): completely abrogated

Compound: CN1CCN(CCNC(=O)c2ccc(C(=O)Nc3cc(-c4cccs4)ccc3N)cc2)CC1 [BRD-5298, N1-(2-amino-5-(thiophen-2-yl)phenyl)-N4-(2-(4-methylpiperazin-1-yl)ethyl)terephthalamide]
- tetra-acetylated H2B (tetra-acetylated H2B): trend toward increasing
- tetra-acetylated H4 (tetra-acetylated H4): significantly increased
- overall cell number [2]: do not cause an increase or decrease
- H2B acetylation (H2B acetylation): significant increase

Compound: CCCC(=O)[O-].[Na+] [SB, sodium butyrate]
- inhibition of HDAC6 activity in vitro (HDAC6): does not inhibit
